The values that follow come from patent publication US10858367B2, “Compounds” (GLAXOSMITHKLINE INTELLECTUAL PROPERTY DEVELOPMENT LIMITED, priority 2017, dated 2020).

Where “and” joins values, the source holds several entries; their conditions need not be identical. Equal entries are not always repeated. Some results are limits rather than exact numbers.

T1 sequence (Q5S007 whole entry): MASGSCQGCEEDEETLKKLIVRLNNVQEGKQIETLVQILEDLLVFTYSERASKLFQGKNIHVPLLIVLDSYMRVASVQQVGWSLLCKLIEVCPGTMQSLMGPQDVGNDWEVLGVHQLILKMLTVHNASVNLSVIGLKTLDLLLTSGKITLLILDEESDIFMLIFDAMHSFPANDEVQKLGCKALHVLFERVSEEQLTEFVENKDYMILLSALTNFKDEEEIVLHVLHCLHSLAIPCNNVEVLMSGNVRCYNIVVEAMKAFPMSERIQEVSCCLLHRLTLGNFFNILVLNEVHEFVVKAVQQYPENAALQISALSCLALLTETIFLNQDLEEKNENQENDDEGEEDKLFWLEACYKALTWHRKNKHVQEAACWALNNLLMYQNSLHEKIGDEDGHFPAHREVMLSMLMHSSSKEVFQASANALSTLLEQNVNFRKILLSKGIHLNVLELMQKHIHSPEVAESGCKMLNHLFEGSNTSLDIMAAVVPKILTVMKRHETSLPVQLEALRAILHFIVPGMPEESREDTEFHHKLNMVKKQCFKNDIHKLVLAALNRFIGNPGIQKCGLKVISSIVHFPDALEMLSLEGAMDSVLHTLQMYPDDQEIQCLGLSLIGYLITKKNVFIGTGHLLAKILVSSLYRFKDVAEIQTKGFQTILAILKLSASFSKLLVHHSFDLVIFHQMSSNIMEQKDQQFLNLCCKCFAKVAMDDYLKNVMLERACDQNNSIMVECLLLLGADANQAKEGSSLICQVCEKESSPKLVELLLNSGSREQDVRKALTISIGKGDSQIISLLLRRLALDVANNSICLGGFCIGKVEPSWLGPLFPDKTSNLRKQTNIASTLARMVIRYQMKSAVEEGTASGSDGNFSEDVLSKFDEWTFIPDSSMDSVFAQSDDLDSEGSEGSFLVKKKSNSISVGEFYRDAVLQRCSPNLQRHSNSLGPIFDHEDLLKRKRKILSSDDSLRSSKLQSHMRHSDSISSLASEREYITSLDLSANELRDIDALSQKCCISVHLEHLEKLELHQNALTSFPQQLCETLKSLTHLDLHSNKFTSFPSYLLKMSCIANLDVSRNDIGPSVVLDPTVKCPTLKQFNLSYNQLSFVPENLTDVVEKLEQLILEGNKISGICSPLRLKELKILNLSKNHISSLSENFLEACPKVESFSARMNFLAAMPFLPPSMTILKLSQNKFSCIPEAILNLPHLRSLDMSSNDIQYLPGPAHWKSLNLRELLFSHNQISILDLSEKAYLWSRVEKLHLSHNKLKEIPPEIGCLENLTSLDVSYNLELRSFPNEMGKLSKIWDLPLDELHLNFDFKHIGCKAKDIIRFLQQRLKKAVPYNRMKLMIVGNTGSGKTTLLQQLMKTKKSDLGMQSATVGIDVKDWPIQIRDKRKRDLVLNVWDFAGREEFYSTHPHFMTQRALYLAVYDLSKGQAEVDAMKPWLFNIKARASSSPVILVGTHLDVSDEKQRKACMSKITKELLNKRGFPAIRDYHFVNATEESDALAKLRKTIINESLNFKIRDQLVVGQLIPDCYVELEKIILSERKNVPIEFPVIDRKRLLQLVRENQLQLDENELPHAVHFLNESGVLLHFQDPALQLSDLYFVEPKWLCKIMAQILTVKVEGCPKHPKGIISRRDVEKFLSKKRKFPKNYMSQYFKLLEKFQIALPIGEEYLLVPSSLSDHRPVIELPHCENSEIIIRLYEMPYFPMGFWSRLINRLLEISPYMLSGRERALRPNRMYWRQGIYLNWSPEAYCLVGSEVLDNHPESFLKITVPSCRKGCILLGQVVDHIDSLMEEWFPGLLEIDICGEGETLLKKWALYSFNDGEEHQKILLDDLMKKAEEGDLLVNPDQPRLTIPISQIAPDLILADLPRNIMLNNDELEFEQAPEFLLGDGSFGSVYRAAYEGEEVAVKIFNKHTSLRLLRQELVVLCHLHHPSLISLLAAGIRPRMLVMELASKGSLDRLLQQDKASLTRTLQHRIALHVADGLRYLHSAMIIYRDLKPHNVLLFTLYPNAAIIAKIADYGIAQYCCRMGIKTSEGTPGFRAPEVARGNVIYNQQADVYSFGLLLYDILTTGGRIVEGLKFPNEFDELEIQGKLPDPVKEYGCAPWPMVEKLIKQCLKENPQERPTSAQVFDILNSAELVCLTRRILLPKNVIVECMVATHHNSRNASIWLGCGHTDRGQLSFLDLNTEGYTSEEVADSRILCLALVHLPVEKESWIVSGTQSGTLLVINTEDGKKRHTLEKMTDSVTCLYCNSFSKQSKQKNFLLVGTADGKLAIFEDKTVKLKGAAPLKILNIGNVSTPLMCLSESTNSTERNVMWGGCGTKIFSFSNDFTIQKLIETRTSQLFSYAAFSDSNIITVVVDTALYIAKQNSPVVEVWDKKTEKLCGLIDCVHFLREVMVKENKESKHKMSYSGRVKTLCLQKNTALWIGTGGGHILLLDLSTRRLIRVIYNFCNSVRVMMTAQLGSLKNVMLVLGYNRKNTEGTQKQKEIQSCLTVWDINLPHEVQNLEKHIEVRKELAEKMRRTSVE

This experiment concerns the target T1, LRRK2 Ser935 phosphorylation in SH-SY5Y cells over-expressing recombinant full length LRRK2 (Homo sapiens, UniProt Q5S007).
T1 construct: A BacMam virus expressing full length recombinant LRRK2 was purchased from Invitrogen; host or cells: SH-SY5Y human neuroblastoma cells transduced with BacMam LRRK2 virus
Put plainly: Recombinant cellular LRRK2 AlphaScreen assay. It counts as cell-based. Particulars: human neuroblastoma SH-SY5Y cells, BacMam full length LRRK2, 60 minutes with compound, read-out: pIC50 in the recombinant cellular LRRK2 AlphaScreen assay (converted). An excerpt: b. Recombinant Cellular LRRK2 AlphaScreen Assay
To determine the activity of compounds against LRRK2 kinase activity in cells, the observed LRRK2 kinase-dependent modulation of LRRK2 Ser 935 phosphorylation (Dzamko et al., 2010, Biochem. J. 430: 405-413) was utilized to develop a quantitative 384 well plate-based immunoassay of LRRK2 Ser935 phosphorylation in the human neuroblastoma cell line SH-SY5Y, engineered to over-express recombinant full length LRRK2 protein.
A BacMam virus expressing full length recombinant LRRK2 was purchased from Invitrogen and amplified by inoculation of SF-9 cells at MOI 0.3 for 4-5 days in Sf-900 III SFM medium supplemented with 3% fetal bovine serum. Infected cell cultures were then centrifuged at 2000 g for 20 minutes, viral supernatant titer determined by anti-gp64 plaque assay and stored at 4° C.
Affinity-purified anti-phospho LRRK2 Ser935 sheep polyclonal antibody (Dzamko et al., 2010, Biochem. J. 430: 405-413) was biotinylated by standard methods (PerkinElmer). Anti-LRRK2 rabbit polyclonal antibody was purchased from Novus Biologicals. AlphaScreen Protein A IgG Kit (including acceptor and donor beads) was purchased from Perkin Elmer.
SH-SY5Y cells were grown in DMEM/F12 medium with 10% dialysed fetal bovine serum and harvested by treatment with 0.5% trypsin-EDTA for 5 minutes at 37° C. followed by centrifugation at 1000 rpm for 4 minutes. The cell pellet was resuspended in Opti-MEM reduced serum media (Invitrogen) at 200,000 cells/ml and mixed with the BacMam LRRK2 virus at MOI=50. 50 μl cell solutions were then dispensed to each well of a 384-well plate and incubated at 37° C., 5% CO2 for 24 hours.
Serial dilutions of test compounds were prepared in Opti-MEM reduced serum media (Invitrogen) and 5.6 ul transferred from compound plate to cell assay plate to achieve a top final assay concentration of 10 uM. DMSO was used in certain wells as controls. Cells were incubated at 37° C., 5% CO2 for 60 minutes. The medium was then removed and cells lysed by addition of 20 ul cell lysis buffer (Cell Signaling Technology) and incubation at 4° C. for 20 minutes. 10 ul of antibody/acceptor bead mix [(1/1000 biotinylated-pS935 LRRK2 antibody, 1/1000 total-LRRK2 antibody, 1/100 Acceptor beads in AlphaScreen detection buffer (25 mM Hepes (pH 7.4), 0.5% Triton X-100, 1 mg/ml Dextran 500 and 0.1% BSA)] was then added to each well and plates incubated for 2 hours at ambient temperature in the dark. 10 μl of donor beads solution (1/33.3 donor beads in AlphaScreen detection buffer) was then added to each well. Following incubation for a further 2 hours at ambient temperature in the dark, plates were read on an EnVision™ plate reader at emission 520-620 nm with excitation 680 nm. Dose response curve data was based on sigmoidal dose-response model.
For `Cc1nc(N2CC3(CO)CC2CO3)cc(-n2ncc3cc(C)c(C4CCN(C5CCOC5)CC4)cc32)n1` (single isomer, unassigned) [Example E153, (5-(2-methyl-6-(5-methyl-6-(1-(tetrahydrofuran-3-yl)piperidin-4-yl)-1H-indazol-1-yl)pyrimidin-4-yl)-2-oxa-5-azabicyclo[2.2.1]heptan-1-yl)methanol], the IC50 is not above 1 µM.
For `Cc1nc(N2C[C@H]3C[C@@H]2CO3)cc(-n2ncc3cc(C)c(C4CCN(CCC(=O)O)CC4F)cc32)n1` (single isomer, unassigned) [Example E155] the value was not above 1 µM.
For `Cc1nc(N2C[C@@H]3C[C@H]2CO3)cc(-n2ncc3cc(C)c(C4CCN(CCC(=O)O)CC4F)cc32)n1` (single isomer, unassigned) [Example E157], the IC50 was not above 1 µM.
For `COc1nc(N2C[C@@H]3C[C@H]2CO3)cc(-n2ncc3cc(C)c(C4CCN(CCC(=O)O)CC4F)cc32)n1` (single isomer, unassigned) [Example E161] the value was not above 1 µM; for `Cc1nc(N2C[C@@]3(CO)C[C@@H]2CO3)cc(-n2ncc3cc(C)c(C4CCOCC4O)cc32)n1` (single isomer, unassigned) [Example E168, 4-(1-(6-(1-(hydroxymethyl)-2-oxa-5-azabicyclo[2.2.1]heptan-5-yl)-2-methylpyrimidin-4-yl)-5-methyl-1H-indazol-6-yl)tetrahydro-2H-pyran-3-ol], not above 1 µM.
The result for `Cc1nc(N2C[C@H]3C[C@@H]2CO3)cc(-n2ncc3cc(C)c(C4CCN(C5COCC5O)CC4)cc32)n1` (single isomer, unassigned) [Example E172] reads not above 1 µM; that for `COc1nc(N2C[C@H]3C[C@@H]2CO3)cc(-n2ncc3cc(C)c(C4CCN(C5COC5)CC4)cc32)n1` [Example E1, (1R,4R)-5-(2-methoxy-6-(5-methyl-6-(1-(oxetan-3-yl)piperidin-4-yl)-1H-indazol-1-yl)pyrimidin-4-yl)-2-oxa-5-azabicyclo[2.2.1]heptane], ≤ 1 µM and 0.02 µM.
For `COc1nc(N2C[C@@H]3C[C@H]2CO3)cc(-n2ncc3cc(C)c(C4CCN(C5COC5)CC4)cc32)n1` [Example E2, (1S,4S)-5-(2-methoxy-6-(5-methyl-6-(1-(oxetan-3-yl)piperidin-4-yl)-1H-indazol-1-yl)pyrimidin-4-yl)-2-oxa-5-azabicyclo[2.2.1]heptane] the value was not above 1 µM.
`COc1nc(N2C[C@H]3C[C@@H]2CO3)cc(-n2ncc3ccc(OC4(C)CC4)cc32)n1` [Example E3, (1R,4R)-5-(2-methoxy-6-(6-(1-methylcyclopropoxy)-1H-indazol-1-yl)pyrimidin-4-yl)-2-oxa-5-azabicyclo[2.2.1]heptane]: the IC50 was not above 1 µM.
For `COc1nc(N2C[C@@H]3C[C@H]2CO3)cc(-n2ncc3ccc(OC4(C)CC4)cc32)n1` [Example E4, (1S,4S)-5-(2-methoxy-6-(6-(1-methylcyclopropoxy)-1H-indazol-1-yl)pyrimidin-4-yl)-2-oxa-5-azabicyclo[2.2.1]heptane] the value was not above 1 µM; for `COc1nc(N2C[C@H]3C[C@@H]2CO3)cc(-n2ncc3cc(Cl)c(C4CCN(C5COC5)CC4)cc32)n1` [Example E5, (1R,4R)-5-(6-(5-chloro-6-(1-(oxetan-3-yl)piperidin-4-yl)-1H-indazol-1-yl)-2-methoxypyrimidin-4-yl)-2-oxa-5-azabicyclo[2.2.1]heptane], not above 0.01 µM.
For `COc1nc(N2C[C@@H]3C[C@H]2CO3)cc(-n2ncc3cc(Cl)c(C4CCN(C5COC5)CC4)cc32)n1` [Example E6, (1S,4S)-5-(6-(5-chloro-6-(1-(oxetan-3-yl)piperidin-4-yl)-1H-indazol-1-yl)-2-methoxypyrimidin-4-yl)-2-oxa-5-azabicyclo[2.2.1]heptane] the value was not above 1 µM; for `Cc1nc(N2C[C@@H]3C[C@H]2CO3)cc(-n2ncc3cc(C)c([C@H]4CC[C@@](C)(O)CC4)cc32)n1` [Example E7, Cis-4-(1-(6-((1S,4S)-2-oxa-5-azabicyclo[2.2.1]heptan-5-yl)-2-methylpyrimidin-4-yl)-5-methyl-1H-indazol-6-yl)-1-methylcyclohexanol], not above 1 µM.
Take `Cc1nc(N2C[C@@H]3C[C@H]2CO3)cc(-n2ncc3cc(C)c([C@H]4CC[C@](C)(O)CC4)cc32)n1` [Example E8, Trans-4-(1-(6-((1S,4S)-2-oxa-5-azabicyclo[2.2.1]heptan-5-yl)-2-methylpyrimidin-4-yl)-5-methyl-1H-indazol-6-yl)-1-methylcyclohexanol]: the IC50 is not above 1 µM.
For `Cc1nc(N2C[C@H]3C[C@@H]2CO3)cc(-n2ncc3cc(Cl)c(C4CCN(C5COC5)CC4)cc32)n1` [Example E25, (1R,4R)-5-(6-(5-chloro-6-(1-(oxetan-3-yl)piperidin-4-yl)-1H-indazol-1-yl)-2-methylpyrimidin-4-yl)-2-oxa-5-azabicyclo[2.2.1]heptane] the value was not above 1 µM; for `Cc1nc(N2C[C@@H]3C[C@H]2CO3)cc(-n2ncc3cc(Cl)c(C4CCN(C5COC5)CC4)cc32)n1` [Example E26, (1S,4S)-5-(6-(5-chloro-6-(1-(oxetan-3-yl)piperidin-4-yl)-1H-indazol-1-yl)-2-methylpyrimidin-4-yl)-2-oxa-5-azabicyclo[2.2.1]heptane], not above 1 µM; for `COc1nc(N2C[C@H]3C[C@@H]2CO3)cc(-n2ncc3cc(C)c(C4CCN(CCO)CC4)cc32)n1` [Example E27, 2-(4-(1-(6-((1R,4R)-2-oxa-5-azabicyclo[2.2.1]heptan-5-yl)-2-methoxypyrimidin-4-yl)-5-methyl-1H-indazol-6-yl)piperidin-1-yl)ethanol], not above 1 µM.
On to `COc1nc(N2C[C@@H]3C[C@H]2CO3)cc(-n2ncc3cc(C)c(C4CCN(CCO)CC4)cc32)n1` [Example E28, 2-(4-(1-(6-((1S,4S)-2-oxa-5-azabicyclo[2.2.1]heptan-5-yl)-2-methoxypyrimidin-4-yl)-5-methyl-1H-indazol-6-yl)piperidin-1-yl)ethanol], for which the IC50 is not above 1 µM.
The result for `Cc1nc(N2C[C@H]3C[C@@H]2CN3C2COC2)cc(-n2ncc3cc(C)c([C@H]4CC[C@@](C)(O)CC4)cc32)n1` [Example E29, Cis-1-methyl-4-(5-methyl-1-(2-methyl-6-((1R,4R)-5-(oxetan-3-yl)-2,5-diazabicyclo[2.2.1]heptan-2-yl)pyrimidin-4-yl)-1H-indazol-6-yl)cyclohexanol] reads not above 1 µM; that for `Cc1nc(N2CC3CC2CN3C2COC2)cc(-n2ncc3cc(C)c([C@H]4CC[C@@](C)(O)CC4)cc32)n1` (stereo partly drawn) [Example E30, Cis-1-methyl-4-(5-methyl-1-(2-methyl-6-((1S,4S)-5-(oxetan-3-yl)-2,5-diazabicyclo[2.2.1]heptan-2-yl)pyrimidin-4-yl)-1H-indazol-6-yl)cyclohexanol], not above 1 µM.
For `Cc1nc(N2C[C@H]3C[C@@H]2CN3C2COC2)cc(-n2ncc3cc(C)c([C@H]4CC[C@](C)(O)CC4)cc32)n1` [Example E31, Trans-1-methyl-4-(5-methyl-1-(2-methyl-6-((1R,4R)-5-(oxetan-3-yl)-2,5-diazabicyclo[2.2.1]heptan-2-yl)pyrimidin-4-yl)-1H-indazol-6-yl)cyclohexanol] the value was 1.07 µM.
For `Cc1nc(N2C[C@@H]3C[C@H]2CN3C2COC2)cc(-n2ncc3cc(C)c([C@H]4CC[C@](C)(O)CC4)cc32)n1` [Example E32, Trans-1-methyl-4-(5-methyl-1-(2-methyl-6-((1S,4S)-5-(oxetan-3-yl)-2,5-diazabicyclo[2.2.1]heptan-2-yl)pyrimidin-4-yl)-1H-indazol-6-yl)cyclohexanol] the value was 1.86 µM; for `Cc1nc(N2C[C@@H]3C[C@H]2CO3)cc(-n2ncc3cc(Cl)c(N4CCC(C)(O)CC4)cc32)n1` [Example E33, 1-(1-(6-((1S,4S)-2-oxa-5-azabicyclo[2.2.1]heptan-5-yl)-2-methylpyrimidin-4-yl)-5-chloro-1H-indazol-6-yl)-4-methylpiperidin-4-ol], not above 1 µM.
